Each compound was assayed against Human cytomegalovirus protease (assemblin, UL80) (assay: In vitro inhibitory activity against HCMV (human cytomegalovirus) protease using scintillation proximity assay).

**Q.** `Cc1nc2nnc(-c3ccc([N+](=O)[O-])cc3)nn2c(=O)c1C` [7,8-Dimethyl-3-(4-nitro-phenyl)-pyrimido[1,2-b][1,2,4,5]tetrazin-6-one] was tested. Which IC50 did it give?
**A.** The IC50 was 1700 nM.

**Q.** Which IC50 does the source give for `Cc1nc2nnc(C(C)(C)C)nn2c(=O)c1C` [3-tert-Butyl-7,8-dimethyl-pyrimido[1,2-b][1,2,4,5]tetrazin-6-one] here?
**A.** The IC50 was 600 nM.

**Q.** With `Cc1nc2nnc(C(c3ccccc3)c3ccccc3)nn2c(=O)c1C` [3-Benzhydryl-7,8-dimethyl-pyrimido[1,2-b][1,2,4,5]tetrazin-6-one] as the compound, how does the IC50 read?
**A.** Its IC50 is 1700 nM.

**Q.** How did the IC50 turn out when `Cc1nnc2nc(C)c(C)c(=O)n2n1` [3,7,8-Trimethyl-pyrimido[1,2-b][1,2,4,5]tetrazin-6-one] was run?
**A.** Its IC50 is 300 nM.

**Q.** With `COc1ccc(-c2nnc3nc(C)c(C)c(=O)n3n2)cc1` [3-(4-Methoxy-phenyl)-7,8-dimethyl-pyrimido[1,2-b][1,2,4,5]tetrazin-6-one] as the compound, how does the IC50 read?
**A.** The IC50 was 500 nM.

**Q.** How did the IC50 turn out when `Cc1nc2nncnn2c(=O)c1C` [7,8-Dimethyl-pyrimido[1,2-b][1,2,4,5]tetrazin-6-one] was run?
**A.** Its IC50 is 100 nM.

**Q.** How did the IC50 turn out when `Cc1ccc(-c2nnc3nc(C)c(C)c(=O)n3n2)cc1` [7,8-Dimethyl-3-p-tolyl-pyrimido[1,2-b][1,2,4,5]tetrazin-6-one] was run?
**A.** Its IC50 is 300 nM.

**Q.** Which IC50 does the source give for `Cc1nc2nnc(-c3ccccc3)nn2c(=O)c1C` [7,8-Dimethyl-3-phenyl-pyrimido[1,2-b][1,2,4,5]tetrazin-6-one] here?
**A.** Its IC50 is 400 nM.

Source: BindingDB's records for doi:10.1016/s0960-894x(03)00789-3 (Wyeth Research, 2003)
